Experimental data taken from patent US7964587B2, “Tocopherol and tocotrienol aerosols” (Children's Hospital & Research Center at Oakland, priority 2002, dated 2011).
Like-named read-outs stand apart in the source and are kept apart here.

Legend:
[1] = tested on: PGE2; experiment: inhibition of PGE2, apparent IC50s of vitamin E forms; type: cell-based; conditions: for inhibitory effect on PGE2: e.g. ref. 10
[2] = tested on: carrageenan-induced inflammation; experiment: carrageenan-induced inflammation in the air-pouch model; type: in vivo, rat
Protocol: For this experimental protocol, we adapted the methods recited in the Experimental Example reported below. […] Formulations were administered as described below, wherein the recited tocopherol was dissolved in tocopherol-stripped corn oil, and continuously administrated by gavage for three days before the induction of inflammation. The PGE2 component of the formulation was empirically varied and adjusted to provide a minimized synergistic concentration. For example, aspirin formulations were adjusted to 50 or 100 mg/Kg with gamma-T at 30 mg/Kg. In controls evaluating the effects of aspim or gamma-T alone, we increased the aspririn dosage to 150 mg/Kg and gamma-T to […], respectively.
Gamma-CEHC was quantified essentially as previously described (13).
For the measurement of PGE2, LTB4 and 8-isoprostane, the exudate fluid was mixed vigorously with 2 mL methanol to precipitate proteins, and with 5 mL hexane to remove lipids. Following a brief centrifugation and aspiration of the hexane layer, the methanol layer was removed and evaporated under N2. PGE2, LTB4 and 8-isoprostane were measured using the corresponding ELISA kits from Cayman Chemicals (Ann Arbor, Mich.). TNF-a and lactate dehydrogenase (LDH) in the exudate were measured directly using an ELISA kit from R&D (Minneapolis, Minn.) and an analytical kit from Roche (Indianapolis, Ind.), respectively.
The total amount of nitrate and nitrite in the exudate was measured using the Model 280 nitric oxide analyzer (NOA™) (Sievers Instruments, Inc.; Boulder, Colo.). Nitrite and nitrate in the exudate were reduced by vanadium (III) to nitric oxide, which then was measured by a red-sensitive photomultiplier tube after being converted by ozone to chemiluminescent reactive nitrogen dioxide. Nitrite and nitrate were quantified based on a standard curve from nitrate that was established under the identical conditions.
Carrageenan-induced inflammation in the air-pouch model is commonly used to evaluate the pharmaceutical potency of anti-inflammatory drugs (14). […] These cells play a key role in the inflammatory response (11, 14, 15). A single injection of carrageenan caused a potent localized inflammation, as indicated by a marked increase in white cell infiltration, eicosanoid formation and tissue damages (11). To study the effect of gamma-CEHC on eicosanoid synthesis and neutrophil infiltration, it (1 mg/ml, 2 ml in PBS) was injected directly into the air pouch right before the injection of carrageenan. Since the retention of gamma-CEHC is relatively short (16), its effect was evaluated at 6 h after the induction of inflammation.
To test the effects of tocopherols, alpha-T or gamma-T, dissolved in tocopherol-stripped corn oil, was continuously administrated by gavage for three days before the induction of inflammation. Effects were evaluated at 20 h after carrageenan injection, when cell infiltration had reached a maximum in the pouch.

[3] = plasma and exudate concentrations of alpha-T, gamma-T and gamma-CEHC in the air-pouch model; conditions: for gamma-T concentration in the collected exudate: 20-h after carrageenan
Protocol: Carrageenan-induced inflammation in the air-pouch model was performed and evaluated substantially as previously described (14). Alpha-T and gamma-T were measured in plasma and exudate as previously described (12). Gamma-CEHC was quantified essentially as previously described (13).
To evaluate the relative bio-availability of the administrated compounds, we measured plasma and exudate concentrations of gamma-T and alpha-T as well as plasma gamma-CEHC.

[4] = tested on: human prostate epithelial cancer cells; experiment: anti-proliferative effect on prostate cancer cells; type: cell-based
[5] = tested on: lung epithelial cancer cells; experiment: anti-proliferative effect on lung cancer cells; type: cell-based, human
[6] = tested on: normal epithelial cells; experiment: effect on normal epithelial cells; type: cell-based
[7] = cited from earlier work
[8] = tested on: carrageenan-induced inflammation; conditions: cited from earlier work
[9] = 1 mg/ml, 2 ml in PBS injected into the air pouch, 6 h
[10] = 33 mg/kg by gavage for three days, 20 h after carrageenan, P<0.05

Cc1c(C)c2c(c(C)c1O)CC[C@@](C)(CCC[C@H](C)CCC[C@H](C)CCCC(C)C)O2 [alpha-T, alpha-tocopherol, reference compound]
inhibitory effect on PGE2 [1]: weak to no inhibitory effect | effects on generation of eicosanoids and 8-isoprostane ([2]; 33 mg/kg): did not show any significant effects | increased alpha-T level in the plasma and exudate ([3]; 33 mg/kg alpha-T): approximately 2 fold | decrease of gamma-T in the exudate caused by alpha-T administration ([3]; P<0.05): 40% | decrease of gamma-T in the plasma caused by alpha-T administration ([3]; P<0.05): ~55%

alpha-tocotrienol [reference compound]
inhibitory effect on PGE2 [1]: weak to no inhibitory effect

Cc1c(O)cc2c(c1C)OC(C)(CCC(=O)O)CC2 (centres unmarked) [gamma-CEHC, 2,7,8-trimethyl-2-(b-carboxyethyl)-6-hydroxychroman]
inhibition of LTB4 [2, 9]: inhibited LTB4 and neutrophil infiltration, though non-significantly | inhibition of neutrophil infiltration [2, 9]: inhibited LTB4 and neutrophil infiltration, though non-significantly | reduction of PGE2 in the pouch ([2]; 1 mg/ml, 2 ml in PBS injected into the air pouch, 6 h after induction, P<0.05): ~29% | plasma concentration of gamma-CEHC ([3]; rat, in vivo): Nano-molar concentrations | plasma gamma-CEHC level relative to plasma gamma-T ([3]; rat, in vivo): less than 10%

Cc1c(O)cc2c(c1C)O[C@](C)(CCC[C@H](C)CCC[C@H](C)CCCC(C)C)CC2 [gamma-T, gamma-tocopherol]
IC50 [1]: 5 to 10 µM | anti-proliferative effect [4]: showed anti-proliferative effects | anti-proliferative effect [5]: showed anti-proliferative effects | effect on normal epithelial cells [6]: had no effect | effect on total nitrate and nitrite ([2]; 33 mg/kg): had no effect | reduction of LTB4 [2, 10]: 70% | reduction of PGE2 [2, 10]: 46% | reduction of 8-isoprostane in the pouch (lipid peroxidation) ([2]; 33 mg/kg, P<0.05): ~57% | attenuation of the loss of food consumption ([2]; 33 mg/kg, non-significant, P=0.2): 20% | inhibition of TNF-a ([2]; 33 mg/kg, non-significant, P=0.29): ~51% | inhibitory potency against PGE2 ([2]; 100 mg/kg by gavage for three days, 20 h, P<0.05): 51% | attenuation of the loss of food consumption ([2]; 100 mg/kg, P<0.03): 30% | reduction of 8-isoprostane in the pouch (lipid peroxidation) ([2]; 100 mg/kg, P<0.05): ~57% | lowering of LDH (cytotoxicity and tissue damage marker) ([2]; 100 mg/kg, P=0.067): 30% | reduction of TNF-a ([2]; 100 mg/kg, P=0.069): 65% | reduction of total nitrite and nitrate ([2]; 100 mg/kg, P=0.1): 40% | neutrophil infiltration ([2]; gavage 33 or 100 mg/kg, 20 h): did not affect | fraction of gamma-T converted to gamma-CEHC [7]: ≤ 50% | elevation of gamma-T in exudate fluid vs corn-oil fed controls ([3]; 33 mg/kg): ~10 fold | gamma-T concentration in exudate, corresponding molar concentration ([3]; 33 mg/kg): ~10 µM | increase of gamma-T in the plasma vs corn-oil fed controls ([3]; 33 mg/kg): 3 fold | ratio of gamma-T to alpha-T in the exudate ([3]; 33 mg/kg gamma-T): ~0.3 | gamma-T concentration in the collected exudate ([3]; 33 mg/kg): 93.3 nmol/gprotein | elevation of gamma-T in exudate fluid vs corn-oil fed controls ([3]; 100 mg/kg): ~20 fold | gamma-T concentration in exudate, corresponding molar concentration ([3]; 100 mg/kg): ~20 µM | increase of gamma-T in the plasma vs corn-oil fed controls ([3]; 100 mg/kg): 5 fold | ratio of gamma-T to alpha-T in the exudate ([3]; 100 mg/kg gamma-T): ~0.7 | gamma-T concentration in the collected exudate ([3]; 100 mg/kg): 193 nmol/gprotein | ratio of gamma-T to alpha-T in the plasma ([3]; 33 or 100 mg/kg gamma-T): ~0.15 | effect of gamma-T administration on alpha-T levels ([3]; rat, in vivo): did not significantly affect

Cc1cc(O)cc2c1O[C@](C)(CCC[C@H](C)CCC[C@H](C)CCCC(C)C)CC2 [delta-T, Delta-tocopherol]
IC50 [1]: 2.5 to 5 µM

Cc1cc(O)c(C)c2c1O[C@](C)(CCC[C@H](C)CCC[C@H](C)CCCC(C)C)CC2 [beta-T, beta-tocopherol, reference compound]
inhibitory effect on PGE2 [1]: weak to no inhibitory effect

CC(=O)Oc1ccccc1C(=O)O [aspirin, Acetylsalicylic acid]
neutrophil infiltration ([8]; doses of 100-150 mg/kg): did not affect | reduction of PGE2 ([8]; doses of 100-150 mg/kg): 50-70% | cell infiltration ([8]; higher doses, >200-300 mg/kg): inhibits cell infiltration

CC(C)=CCC/C(C)=C/CC/C(C)=C/CC[C@]1(C)CCc2cc(O)c(C)c(C)c2O1 [gamma-tocotrienol]
IC50 [1]: 1 to 2.5 µM
